# Patent publication US20240407371A1, “METHOD FOR THE KILLING, INACTIVATING, OR INHIBITING OF HARMFUL BLUE-GREEN ALGAE OR ALGAE CAPABLE OF CAUSING HARMFUL ALGAL BLOOM (HAB)” (priority 2021, published 2024)
# Tested on: Saprolegnia diclina
# Assay: Atlantic salmon eggs challenged with Saprolegnia diclina trojan eggs, immersion baths
# Type: in vivo, Atlantic salmon (Salmo solar L.) eggs
# Conditions: 1665 ppm, 15 min bath daily
smiles,measurement,setting,value
C=O [Formalin],signs of saprolegniosis,,did not suffer any sign of saprolegniosis
same,Average Number of Eggs Entangled,"Treatment E, 10 days",0.00
same,Average Percent Eggs Entangled,"Treatment E, 10 days",0.00
